How the values were obtained:
[1] = molecular target: T1, Endothelin-1 receptor (Homo sapiens, UniProt P25101); assay: Tested for binding affinity towards human Endothelin A receptor
T1 sequence (P25101 whole entry): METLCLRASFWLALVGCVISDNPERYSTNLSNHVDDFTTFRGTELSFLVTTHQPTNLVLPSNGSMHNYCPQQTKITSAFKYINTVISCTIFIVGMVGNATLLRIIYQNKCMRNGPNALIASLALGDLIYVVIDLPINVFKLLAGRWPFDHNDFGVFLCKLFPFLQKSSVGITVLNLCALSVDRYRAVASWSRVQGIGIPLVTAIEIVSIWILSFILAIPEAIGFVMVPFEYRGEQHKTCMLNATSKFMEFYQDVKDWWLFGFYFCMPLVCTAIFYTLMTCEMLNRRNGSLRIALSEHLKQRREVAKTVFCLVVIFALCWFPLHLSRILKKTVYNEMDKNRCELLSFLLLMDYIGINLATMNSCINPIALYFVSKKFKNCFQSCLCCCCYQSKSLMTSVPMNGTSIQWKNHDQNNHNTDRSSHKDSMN

[2] = molecular target: T2, Endothelin receptor type B (Homo sapiens, UniProt P24530); assay: Tested for binding affinity towards human Endothelin B receptor
T2 sequence (P24530 whole entry): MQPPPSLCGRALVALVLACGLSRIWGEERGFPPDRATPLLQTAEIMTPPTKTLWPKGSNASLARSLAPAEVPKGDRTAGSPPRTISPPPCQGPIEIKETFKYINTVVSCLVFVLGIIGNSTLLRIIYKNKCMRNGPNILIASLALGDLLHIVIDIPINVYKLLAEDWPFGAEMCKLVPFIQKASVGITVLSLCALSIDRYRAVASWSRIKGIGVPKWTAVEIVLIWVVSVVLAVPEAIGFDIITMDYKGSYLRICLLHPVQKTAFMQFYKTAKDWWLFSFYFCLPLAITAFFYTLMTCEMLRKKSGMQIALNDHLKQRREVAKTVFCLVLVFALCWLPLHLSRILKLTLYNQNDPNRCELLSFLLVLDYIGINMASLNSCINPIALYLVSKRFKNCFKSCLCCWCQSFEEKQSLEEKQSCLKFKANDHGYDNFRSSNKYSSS

IC50 [1] | SMILES | IC50 [2]
8.2 µM | C/C=C/C=C/C(=O)O[C@@H]1C=C2COC(OC)[C@]2(O)CC1 (stereo partly drawn) | > 25 µM
> 250 µM | C/C=C/C=C/C(=O)O[C@@H]1C=C2COC(O)[C@]2(O)[C@@]2(C)CCCC(C)(C)C12 (stereo partly drawn) | 148 µM

More lines, now with the values behind:

SMILES | IC50 [1] | IC50 [2]
C/C=C/C=C/C=C/C(=O)O[C@@H]1C=C2COC(O)[C@]2(O)[C@@]2(C)CCCC(C)(C)C12 (stereo partly drawn) | 62 µM | 
C/C=C/C=C/C(=O)O[C@@H]1C=C2COC(=O)[C@]2(O)CC1 | 2.6 µM | > 25 µM
C/C=C/C=C/C(=O)O[C@@H]1C=C2COC(O)[C@]2(O)CC1 (stereo partly drawn) |  | > 25 µM

Reference: ChEMBL document CHEMBL1133352, “Synthesis and endothelin receptor binding activity of synthetic analogues of RES-1149-2” (Bioorg Med Chem Lett, 2000)
